Source: patent publication EP0420120A2, “Optically active benzyl alcohol compound and pharmaceutical composition” (HOKURIKU PHARMACEUTICAL CO., LTD., priority 1989, dated 1991)

Tests used:
[1] = test system: isolated uterine smooth muscle; assay: Effects on isolated uterine smooth muscle of rats (relaxation of oxytocin pre-contracted preparations); assay type: cell-based
Description: Non-pregnant female Wistar rats weighing about 200 g were killed and the uteruses were isolated. Each uterine preparation (15 mm in length) was mounted vertically in an organ bath containing modified Locke-Ringer solution of following composition: 150 mM NaCl, 5.4 mM KCl, 0.36 mM CaCl₂, 0.19 mM MgCl₂, 4.8 mM NaHCO₃, 0.15 mM KH₂ PO₄, 0.56 mM Na₂ HPO₄ and 2.8 mM Glucose. The bath medium was maintained at 37 °C and was equilibrated with a gas mixture consisting of 95% O₂ + 5% CO₂. The uterine preparations were pre-contracted with oxytocin (10 ⁻² U/ml) and the muscle relaxations induced by the test compounds were recorded isotonically. The test compounds were added cumulatively to the bath. ED₅₀ values for concentration-response curves which produce 50% relaxations of the maximal relaxations (10 ⁻⁶ M isoproterenol) were calculated.

isolated atrium = assay: Effects on isolated atrium of guinea-pigs (spontaneous beating rate of right atrium); assay type: cell-based
Description: Male Hartley guinea-pigs weighing about 500 g were killed and the atria were isolated. Each right atrium was mounted vertically in an organ bath containing Krebs-Henseleit solution and the spontaneous beating rate was recorded. The bath medium was maintained at 30°C and was equilibrated with a gas mixture consisting of 95% O₂ + 5% CO₂. The test compounds were added cumulatively to the bath. ED₅₀ values for concentration-response curves which produce 50% increases of the basal spontaneous beating rate were calculated. The results are shown in Table 3 The selcctive relaxing activities of the compound of the present invention on the uterine and the bladder smooth muscle were compared with positive chronotropic effect in the atrium.

## CC(C)(C)NCC(O)c1ccc(O)cc1Cl (single isomer, unassigned; (-)) [(-)-enantiomer, (-)-α -[(tert-Butylamino)methyl]-2-chloro-4-hydroxybenzyl alcohol]
[1]; from the ED₅₀ values of Table 1, fold greater than ritodrine
  effect relative to ritodrine: ~25 fold
[1]; from the ED₅₀ values of Table 1, fold greater than the (+)-enantiomer
  effect relative to the (+)-enantiomer: about 130 fold
Isolated atrium; ED₅₀ value (positive chronotropic effect in the atrium) / ED₅₀ value (relaxing effect on the bladder smooth muscle)
  Selectivity Bladder: 462
Isolated atrium; ED₅₀ value (positive chronotropic effect in the atrium) / ED₅₀ value (relaxing effect on the uterine smooth muscle)
  Selectivity Uterus: 21
